Assay results: US20260364080A1, “PYRAZOLO-PYRIMIDINONE COMPOUNDS FOR USE IN METHODS OF INHIBITING WEE1 A KINASE” (Acrivon Therapeutics, Inc., priority 2023, published 2026)

Legend:
[1] = molecular target: T1, Myt1 kinase (recombinant PMYT-1) (Homo sapiens, UniProt Q99640); test: Myt1 kinase binding assay (LanthaScreen Eu Kinase Binding Assay); conditions: 3 nM tracer 178, 2.5 nM PMYT-1, 1 nM Eu-labeled antibody; read-out: Myt1 kinase Binding IC50
T1 construct: full length PMYT-1 was expressed by baculovirus in insect cells; purchased Invitrogen A30984; host or cells: insect cells (baculovirus)
T1 sequence (Q99640 1-499): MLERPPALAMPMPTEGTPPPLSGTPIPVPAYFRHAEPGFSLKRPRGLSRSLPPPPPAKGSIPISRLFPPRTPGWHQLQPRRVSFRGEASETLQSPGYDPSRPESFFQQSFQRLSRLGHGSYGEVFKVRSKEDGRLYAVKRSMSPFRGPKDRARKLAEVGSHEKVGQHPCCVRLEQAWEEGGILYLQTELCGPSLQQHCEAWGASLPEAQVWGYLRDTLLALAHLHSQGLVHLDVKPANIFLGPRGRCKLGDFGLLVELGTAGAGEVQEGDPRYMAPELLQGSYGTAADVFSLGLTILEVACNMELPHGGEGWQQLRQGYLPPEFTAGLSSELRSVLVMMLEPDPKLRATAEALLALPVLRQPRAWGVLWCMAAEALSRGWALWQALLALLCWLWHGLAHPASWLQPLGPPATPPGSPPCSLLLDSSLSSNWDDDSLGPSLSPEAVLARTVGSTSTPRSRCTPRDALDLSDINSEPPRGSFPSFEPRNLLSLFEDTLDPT
Procedure: (§1) To calculate the emission ratio, the acceptor/tracer emission ([…]) was divided by the antibody/donor emission ([…]) and the average of duplicate measurement was used for calculations. Data plotting, analysis of binding, and curve fitting was done using Excel add-in XLfit version 5.5.0.5 (IDBS, Guildford, United Kingdom). […] “NT” means not tested.
We used a LanthaScreen Europium (Eu) Kinase Binding Assay to determine the binding affinities (IC50) of compounds to Myt1 kinase. […] “NT” designates that the compound was not tested in this assay.

[2] = molecular target: T2, Wee1A kinase (CDK1 Tyr15 phosphorylation in ACHN renal cell carcinoma cells) (Homo sapiens, UniProt P30291); test: High-content imaging of pCdk1 Y15, Wee1A kinase target engagement in ACHN cells; assay type: cell-based; conditions: 4 h treatment, nuclear positivity for pCdk1 Y15 vs DMSO control, read-out: CDK1 Tyr15 Phosphorylation EC50
T2 construct: pCDK1 Tyr15 immunofluorescence read-out
T2 sequence (P30291 whole entry): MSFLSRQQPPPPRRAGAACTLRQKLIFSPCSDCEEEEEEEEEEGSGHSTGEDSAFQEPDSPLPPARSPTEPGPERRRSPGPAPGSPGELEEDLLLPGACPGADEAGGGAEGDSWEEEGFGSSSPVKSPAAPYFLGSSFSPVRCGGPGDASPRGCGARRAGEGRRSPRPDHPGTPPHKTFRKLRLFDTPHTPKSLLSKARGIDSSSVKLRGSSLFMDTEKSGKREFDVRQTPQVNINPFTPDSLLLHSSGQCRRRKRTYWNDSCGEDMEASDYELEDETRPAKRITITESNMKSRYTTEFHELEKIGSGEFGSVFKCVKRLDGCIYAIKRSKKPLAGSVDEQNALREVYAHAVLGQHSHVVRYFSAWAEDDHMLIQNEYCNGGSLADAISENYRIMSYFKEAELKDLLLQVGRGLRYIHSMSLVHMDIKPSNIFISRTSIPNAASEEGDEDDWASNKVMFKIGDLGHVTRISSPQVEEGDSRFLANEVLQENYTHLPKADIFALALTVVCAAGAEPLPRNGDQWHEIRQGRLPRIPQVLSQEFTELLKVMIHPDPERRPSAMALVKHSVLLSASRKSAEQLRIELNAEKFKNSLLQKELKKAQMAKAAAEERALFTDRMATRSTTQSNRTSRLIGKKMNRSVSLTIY
Procedure: Each of an ACHN renal cell carcinoma cell line (ATCC) and a DAOY medulloblastoma cell line, and an A427 lung cancer line were cultured in Minimum Essential Medium Eagle supplemented with 10% fetal calf serum (Sigma), 1% Penicillin-Streptomycin and 10 mM HEPES buffer (HyClone). Cell cultures were kept in a humidified incubator at 37 °C and 5% CO2. Cells were routinely tested for Mycoplasma contamination.
For target engagement assessment of Wee1A kinase inhibition, high-content imaging of ACHN renal cell carcinoma cells was used for quantification of CDK1 phosphorylated on tyrosine 15 by immunofluorescence (“IF”). 20,000 cells per well were seeded in tissue culture treated 96 well plates and treated with compounds at concentrations ranging from 7 to 5,000 nM or from 0.3 to 200 nM for 4h. Cells were fixated for 15 minutes in 4% paraformaldehyde solution, washed in PBS and permeabilized using 0.2% Triton X-100. Blocking was performed for 1 h at RT using Blocker FL Fluorescent Blocking Buffer (Thermo Scientific), thereafter cells were incubated with primary antibody (rabbit anti-pCDK1 Y^15, #4539, Cell Signaling Technology) at 4 °C ON. Alexa Fluor Plus 647 labelled goat anti-rabbit (A32733, Thermo Scientific) was used as secondary antibody. After washing in PBS, nuclei were stained with DAPI solution for 10 min at RT, protected from light. Cells were imaged using an ImageXpress Pico automated imaging system and CellReporter Xpress software (Molecular Devices). The percentage of cells with nuclear positivity for pCdk1 Y^15 compared to DMSO control was determined for each well and drug dose response curves and EC50 values were calculated and visualized using GraphPad Prism. Target engagement for Wee1A kinase can also be measured using the same AlphaLISA assay in OVCAR3 cells, an ovarian cancer cell line. NIH:OVCAR-3 (OVCAR3) cells are cultured in RPMI-1640 medium supplemented with 0.01 mg/ml insulin, 20% FBS, 1% Penicillin-Streptomycin and 10 mM HEPES buffer. 14,000 cells per well are seeded into 96 well tissue culture plates in full medium. Twenty-four hours post seeding, cells are treated with compound for 4 hours at concentrations ranging from 0.017 nM to 1000 nM.

[3] = molecular target: T3, recombinant human Wee1A kinase (Homo sapiens, UniProt P30291); test: Wee1A kinase binding assay (LanthaScreen Eu time-resolved FRET); conditions: 30 nM tracer 178, 5 nM Wee1A kinase, 2 nM Eu-labeled antibody; 60 minutes at room temperature; read-out: Wee1A kinase Binding IC50
T3 construct: full length Wee1 kinase was expressed by baculovirus in insect cells; purchased Invitrogen PV3817; host or cells: insect cells (baculovirus)
T3 sequence (P30291 whole entry): as above
Procedure: This time resolved-FRET binding assay was performed in white 384-well low volume plates (Greiner, cat #784075), at room temperature in kinase buffer A (KBA; Invitrogen cat #PV3189), consisting of 50 mM HEPES-NaOH (pH 7.5), 0.01% Brij-35, 10 mM MgCl2, and 1 mM EGTA. 5 μL of compound (diluted in reaction buffer, to 1% DMSO) were added to various wells in the plate, followed by 5 μL each of recombinant human Wee1A kinase (full length Wee1 kinase was expressed by baculovirus in insect cells using a N-terminal GST tag (MW: 99.1 kDa) (Invitrogen cat #PV3817) and LanthaScreen Eu-anti-GST antibody (Invitrogen, cat #PV5594). After this, 5 μL of kinase tracer 178 (Invitrogen, cat #PV5593) was added to the plate and the plate was incubated for 60 minutes at room temperature. The final assay conditions in each well were: 30 nM tracer 178, 5 nM Wee1A kinase and 2 nM Eu-labeled antibody in total assay volume of 15 μL. An Envision 2104 (Perkin-Elmer) Plate Reader with the following time-resolve fluorescence setting was used for performing LanthaScreen kinase binding assay. • Excitation 320 nm (30 nm bandpass) • Kinase Tracer Emission 665 nm (10 nm bandpass) • LanthaScreen Eu-anti-Tag Antibody Emission 615 nm (10 nm bandpass) • Dichroic Mirror Instrument dependent • Delay Time 100 μs • Integration Time 200 μs
as §1

Row | SMILES | IC50 [1] [nM] | EC50 [2] [nM] | IC50 [3] [nM]
1 | C=CCn1c(=O)c2cnc(Nc3ccc(F)cc3)nc2n1-c1cccc(OC2CCCNCC2)n1 (single isomer, unassigned) [Compound 344] | > 500 | 100 to 500 | < 10
2 | C=CCn1c(=O)c2cnc(Nc3ccc4c(cnn4C)c3)nc2n1-c1cccc(O[C@H]2CCCNCC2)n1 (single isomer, unassigned) [Compound 358] | 100 to 500 | < 100 | < 10
3 | C=CCn1c(=O)c2cnc(Nc3ccc4c(cnn4C)c3)nc2n1-c1cccc(O[C@H]2CCN[C@H](C)C2)n1 (stereo in doubt) [Compound 379, 2-allyl-6-((1-methyl-1H-indazol-5-yl)amino)-1-(6-(((2R,4S)-2-methylpiperidin-4-yl)oxy)pyridin-2-yl)-1,2-dihydro-3H-pyrazolo[3,4-d]pyrimidin-3-one] | 100 to 500 | 100 to 500 | < 10
4 | C=CCn1c(=O)c2cnc(Nc3ccc4c(cnn4C)c3)nc2n1-c1cccc(O[C@H]2CCN(C)[C@H](C)C2)n1 (stereo in doubt) [Compound 380, rel-2-allyl-1-(6-(((2R,4S)-1,2-dimethylpiperidin-4-yl)oxy)pyridin-2-yl)-6-((1-methyl-1H-indazol-5-yl)amino)-1,2-dihydro-3H-pyrazolo[3,4-d]pyrimidin-3-one] | 100 to 500 | 100 to 500 | < 10
5 | C=CCn1c(=O)c2cnc(Nc3ccc4c(cnn4C)c3)nc2n1-c1cccc(O[C@@H]2CCN[C@H](C)C2)n1 (stereo in doubt) [Compound 381, 2-allyl-6-((1-methyl-1H-indazol-5-yl)amino)-1-(6-(((2R,4R)-2-methylpiperidin-4-yl)oxy)pyridin-2-yl)-1,2-dihydro-3H-pyrazolo[3,4-d]pyrimidin-3-one] | 100 to 500 | < 100 | < 10
6 | C=CCn1c(=O)c2cnc(Nc3ccc4c(cnn4C)c3)nc2n1-c1cccc(O[C@@H]2CCN(C)[C@H](C)C2)n1 (stereo in doubt) [Compound 382, 2-allyl-1-(6-(((2R,4R)-1,2-dimethylpiperidin-4-yl)oxy)pyridin-2-yl)-6-((1-methyl-1H-indazol-5-yl)amino)-1,2-dihydro-3H-pyrazolo[3,4-d]pyrimidin-3-one] | 100 to 500 | < 100 | < 10
7 | C=CCn1c(=O)c2cnc(Nc3ccc4c(cnn4C)c3)nc2n1-c1cccc(O[C@@H]2CCNC2)n1 [Compound 101, 1-{6-[(R)-3-pyrrolidinyloxy]-2-pyridyl}-2-allyl-6-(1-methyl-1H-indazol-5-ylamino)-1,2-dihydro-3H-1,2,5,7-tetraazainden-3-one] | 100 to 500 | 100 to 500 | < 10
8 | CCn1c(=O)c2cnc(Nc3cnn(C)c3)nc2n1-c1cccc(OC2CCN(C)CC2)n1 [Compound 341, 2-ethyl-6-[(1-methyl-1H-pyrazol-4-yl)amino]-1-{6-[(1-methylpiperidin-4-yl)oxy]pyridin-2-yl}-1H,2H,3H-pyrazolo[3,4-d]pyrimidin-3-one] | 20 to 100 | 100 to 500 | 

Results, then the compound that gave them:

Row | IC50 [1] [nM] | EC50 [2] [nM] | IC50 [3] [nM] | SMILES
9 | 20 to 100 | < 100 | < 10 | C=CCn1c(=O)c2cnc(Nc3ccc4c(cnn4C)c3)nc2n1-c1cccc(O[C@@H]2CCN[C@@H](C)C2)n1 (relative stereo) [Compound 405, rel-2-allyl-6-((1-methyl-1H-indazol-5-yl)amino)-1-(6-(((2R,4S)-2-methylpiperidin-4-yl)oxy)pyridin-2-yl)-1,2-dihydro-3H-pyrazolo[3,4-d]pyrimidin-3-one]
10 | 20 to 100 | 100 to 500 | < 10 | C=CCn1c(=O)c2cnc(Nc3ccc(F)cc3)nc2n1-c1cccc(O[C@H]2CCCNCC2)n1 (single isomer, unassigned) [Compound 266]
11 | 20 to 100 | < 100 | < 10 | C=CCn1c(=O)c2cnc(Nc3ccc(F)cc3)nc2n1-c1cccc(OC2CCCN(C)CC2)n1 (single isomer, unassigned) [Compound 351]
12 | 20 to 100 | < 100 | < 10 | C=CCn1c(=O)c2cnc(Nc3ccc4c(cnn4C)c3)nc2n1-c1cccc(OC2CCCNCC2)n1 (single isomer, unassigned) [Compound 357]
13 | 20 to 100 | < 100 | < 10 | C=CCn1c(=O)c2cnc(Nc3ccc(F)cc3)nc2n1-c1cccc(OC2CCCN(C)CC2)n1 (single isomer, unassigned) [Compound 372]
14 | 20 to 100 | 500 to 1000 | < 10 | C=CCn1c(=O)c2cnc(Nc3ccc(Cl)cc3)nc2n1-c1cccc(OC2CCCNC2)n1 (stereo in doubt) [Compound 159, 6-[(4-chlorophenyl)amino]-1-{6-[(3R)-piperidin-3-yloxy]pyridin-2-yl}-2-(prop-2-en-1-yl)-1H,2H,3H-pyrazolo[3,4-d]pyrimidin-3-one]
15 | 20 to 100 | > 1000 | < 10 | C=CCn1c(=O)c2cnc(Nc3ccc4c(cnn4C)c3)nc2n1-c1cccc(N[C@H]2CCNC2)n1 [Compound 107, 1-{6-[(S)-3-pyrrolidinylamino]-2-pyridyl}-2-allyl-6-(1-methyl-1H-indazol-5-ylamino)-1,2-dihydro-3H-1,2,5,7-tetraazainden-3-one]
16 | 20 to 100 |  | < 10 | C=CCn1c(=O)c2cnc(Nc3ccc(OC)nc3)nc2n1-c1cccc(OC2CCNCC2)n1 [Compound 251, 2-allyl-6-(6-methoxy-3-pyridylamino)-1-[6-(4-piperidyloxy)-2-pyridyl]-1,2-dihydro-3H-1,2,5,7-tetraazainden-3-one]
17 | 20 to 100 |  | < 10 | C=CCn1c(=O)c2cnc(Nc3ccc4ncccc4c3)nc2n1-c1cccc(OC2CCN(C)CC2)n1 [Compound 325, 2-allyl-1-[6-(1-methyl-4-piperidyloxy)-2-pyridyl]-6-(6-quinolylamino)-1,2-dihydro-3H-1,2,5,7-tetraazainden-3-one]
